Results taken from PMC5863483, “Low HLA binding of diabetes-associated CD8+ T-cell epitopes is increased by post translational modifications” (BMC Immunology, 2018).
Where a SMILES comes first, the peptide text is derived from it. Where no end group is shown, it is not given here.

biological target: HLA-A*02:01 (Homo sapiens, UniProt P04439, D140Y/D185E/D98H/E176V/E277Q/G131W/G231S/I119V/I121R/I166T/I218V/L300P/L318F/N151K/N90K/P208A/P217A/Q86G/Q94H/R138H/R169H/T345S); test: HLA-peptide competition binding assay, A*02:01; conditions: not given

Compound | IC50
HLCGSHLVEA [reference compound] | 7540 nM
LLHVHHSCPL [reference compound] | 7840 nM
LLQVHHSCPL [reference compound] | 3090 nM
LLSILCIWV [reference compound] | 734 nM
LLSLFSLWL [reference compound] | 152 nM
LMGDKSENV [reference compound] | 7370 nM
LVEALYLVC | 11800 nM
MALWMRLLPL | 1260 nM
RGYYYTPKT | 8810 nM
SHLVEALYLV [reference compound] | 2150 nM
SLTTISTTL [reference compound] | 237 nM

same assay, conditions: post-translationally modified insulin peptide; competition binding assay; a dash indicates IC50 >40,000 nM; read-out: A*02:01 binding (IC50 nM) Modified

IC50 | Compound
> 40000 nM | CGERGYFYTP
> 40000 nM | DEHLCGSHL
> 40000 nM | EHLCGSHLVE
> 40000 nM | ERGYFYTPKT
> 40000 nM | GERGYFYTP
> 40000 nM | GERGYYYTPK
> 40000 nM | LVCGERGYF
> 40000 nM | LYLVCGERGY
> 40000 nM | RGYFYTPKT

Second part, the compound before the results:

Compound | IC50
DEHLCGSHLV | > 40000 nM
ERGYFYTPK | > 40000 nM
FVDEHLCGS | > 40000 nM
FVDEHLCGSH | > 40000 nM
GERGYFYTPK | > 40000 nM
LVCGERGYFY | > 40000 nM

same assay, conditions: post-translationally modified insulin-derived peptide; radiolabeled ligand competition, purified MHC, two-day incubation, three or more independent experiments; read-out: A*02:01 binding, Modified

IC50 | Compound
7240 nM | EHLCGSHLV
5730 nM | ERGYYYTPKT

same assay, conditions: read-out: A*02:01 binding (IC50 nM) Modified

IC50 | Compound
26300 nM | CGERGYFYT

same assay, conditions: read-out: A*02:01 binding (IC50 nM) Modified; post-translationally modified insulin peptide; competition binding assay; a dash indicates IC50 >40,000 nM

Compound | IC50
ERGYYYTPK | > 40000 nM
GERGYYYTP | > 40000 nM

same assay, conditions: read-out: A*02:01 binding (IC50 nM) WT

IC50 | Compound
12000 nM | EALYLVCGE
13200 nM | FVNQHLCGSH
32700 nM | GSLQKRGIV
692 nM | HLVEALYLVC
23300 nM | LVEALYLVCG
228 nM | MRLLPLLAL [MRLLPLLAL]
10 nM | MRLLPLLALL
257 nM | SHLVEALYL

Continued, compound first:

Compound | IC50
GSHLVEALYL | 1770 nM
LCGSHLVEA | 1350 nM
NQHLCGSHLV | 7990 nM
REAEDLQVGQ | 23700 nM
RLLPLLALLA | 11 nM
SLQKRGIVE [SLQKRGIVE] | 5950 nM

same assay, conditions: read-out: IC50 nM, target assay A*02:01

IC50 | Compound
8230 nM | CC(C)C[C@H](NC(=O)[C@@H](N)CCCNC(=N)N)C(=O)N[C@@H](CCCNC(=N)N)C(=O)N1CCC[C@H]1C(=O)N[C@@H](CC(C)C)C(=O)N[C@@H](CS)C(=O)N[C@@H](CS)C(=O)N[C@H](C(=O)N[C@@H](C)C(=O)O)[C@@H](C)O [reference compound] (H-RLRPLCCTA-OH)
2780 nM | CC(C)C[C@H](NC(=O)[C@@H](N)[C@@H](C)O)C(=O)N[C@@H](CO)C(=O)N[C@@H](CO)C(=O)N[C@@H](CCCNC(=N)N)C(=O)N[C@H](C(=O)N[C@@H](CS)C(=O)N[C@@H](CS)C(=O)N[C@@H](CCCNC(=N)N)C(=O)N[C@H](C(=O)O)[C@@H](C)O)C(C)C [reference compound] (H-TLSSRVCCRT-OH)
29 nM | ALARGAGTVPL [reference compound]
1010 nM | ALWGPDPAAA [reference compound]
575 nM | AVAANIVLTV [reference compound]
7020 nM | FIQVYEVERA [reference compound]
1.1 nM | FLFAVGFYL [reference compound]
26 nM | FLIVLSVAL [FLIVLSVAL, reference compound]
16 nM | FLLSLFSLWL [reference compound]
70 nM | FLQDVMNIL [reference compound]
55 nM | FLWSVFWLI [reference compound]
84 nM | FMTSSWWRAPL [reference compound]
219 nM | GIPPAPHGV [reference compound]
1230 nM | GIPPAPRGV [reference compound]
5.8 nM | GLLQVHHSCPL [reference compound]
530 nM | GLPAGAAAQA [reference compound]
460 nM | GVFIQVYEV [reference compound]
216 nM | HIAGSLAVV [reference compound]
4060 nM | HLASEKVYAI [reference compound]
4260 nM | HLSYHRLLPL [reference compound]
3820 nM | HLSYHWLLPL [reference compound]
2.2 nM | ILAVDGVLSV [reference compound]

IC50 | Compound
11200 nM | ILDKKVEKV [reference compound]
39 nM | ILKDFSILL [reference compound]
1370 nM | KLQVFLIVL [reference compound]
880 nM | KMYAFTLES [reference compound]
1250 nM | LASEKVYTI [reference compound]
5420 nM | LIFDLGGGT [reference compound]
51 nM | LLDVAPLSL [reference compound]
444 nM | LLPPLLEHL [reference compound]
684 nM | LNIDLLWSV [reference compound]
764 nM | NLLGRFELI [reference compound]
1.8 nM | NLLGRFELIGI [reference compound]
> 40000 nM | QLARQQVHV [reference compound]
91 nM | RLLCALTSL [reference compound]
52 nM | RLLPLWAAL [RLLPLWAAL, reference compound]
5.4 nM | RLLPLWAALPL [reference compound]
124 nM | RLLYPDYQI [reference compound]
1230 nM | RLQREWHTL [reference compound]
709 nM | RMMEYGTTMV [reference compound]
3690 nM | SLAAGVKLL [reference compound]
472 nM | SLEEEIRFL [reference compound]
> 40000 nM | SLQKRGIVEQ [reference compound]

Further lines, the compound ahead of its results:

Compound | IC50
ALGDLFQSI [reference compound] | 76 nM
ALTAVAEEV [reference compound] | 1310 nM
ELAEYLYNI [reference compound] | 637 nM
FLWSVFMLI [reference compound] | 26 nM
FMTSSWWGA [reference compound] | 378 nM
FMTSSWWRA [reference compound] | 101 nM
ILMHCQTTL [reference compound] | 478 nM
ILVLASTITI [reference compound] | 675 nM
IQATVMIIV [reference compound] | 9040 nM
KCQEVLAWL [reference compound] | > 40000 nM
KVLHELFGMDI [reference compound] | 11 nM
LALWGPDPAA [reference compound] | 30300 nM
LASEKVYAI [reference compound] | 6930 nM
LCGSHLVEAL [LCGSHLVEAL, reference compound] | > 40000 nM
LLGRFELIGI [reference compound] | 233 nM
LLIDLTSFL [reference compound] | 8.1 nM

Compound | IC50
LLLLDVAPL [reference compound] | 10 nM
LLQEYNWEL [reference compound] | 35 nM
LMFWSPSHSCA [reference compound] | 143 nM
MVWESGCTV [reference compound] | 126 nM
NLAQDLATV [reference compound] | 67 nM
NLFLFLFAV [reference compound] | 1230 nM
RLGPVARTRV [reference compound] | 581 nM
RLLPLLALLAL [RLLPLLALLAL, reference compound] | 109 nM
SISVLISAL [SISVLISAL, reference compound] | 1550 nM
SLASLLPHV [reference compound] | 9.1 nM
SLFEGVDFYT [reference compound] | 51 nM
SLSPLQAEL [reference compound] | 101 nM
SLTAISTTL [reference compound] | 242 nM
SLYHVYEVNL [reference compound] | 209 nM
SLYQLENYC [reference compound] | 16900 nM

same assay, conditions: unmodified (WT) insulin peptide; competition binding assay; a dash indicates IC50 >40,000 nM; read-out: A*02:01 binding (IC50 nM) WT

IC50 | Compound
> 40000 nM | ALEGSLQKR
> 40000 nM | ALEGSLQKRG
> 40000 nM | CGERGFFYTP
> 40000 nM | CGSHLVEAL [CGSHLVEAL]
> 40000 nM | EGSLQKRGI
> 40000 nM | EGSLQKRGIV
> 40000 nM | FFYTPKTRR
> 40000 nM | FFYTPKTRRE
> 40000 nM | FVNQHLCGS
> 40000 nM | GERGFFYTP
> 40000 nM | GSLQKRGIVE [GSLQKRGIVE]
> 40000 nM | LEGSLQKRG
> 40000 nM | LQKRGIVEQ
> 40000 nM | LQKRGIVEQC
> 40000 nM | LVCGERGFF
> 40000 nM | PKTRREAED [PKTRREAED]
> 40000 nM | PKTRREAEDL
> 40000 nM | QHLCGSHLVE

Second part, the compound before the results:

Compound | IC50
CGERGFFYT | > 40000 nM
FYTPKTRREA | > 40000 nM
HLCGSHLVE | > 40000 nM
KTRREAEDL | > 40000 nM
KTRREAEDLQ | > 40000 nM
LCGSHLVEAL [LCGSHLVEAL, reference compound] | > 40000 nM
LEGSLQKRGI | > 40000 nM
NQHLCGSHL | > 40000 nM
QHLCGSHLV | > 40000 nM
QKRGIVEQC | > 40000 nM
REAEDLQVG | > 40000 nM
RREAEDLQV | > 40000 nM
RREAEDLQVG | > 40000 nM

same assay, conditions: unmodified (wild type) insulin-derived peptide; radiolabeled ligand competition, purified MHC, two-day incubation, three or more independent experiments; read-out: A*02:01 binding, WT

IC50 | Compound
33700 nM | CGSHLVEALY
> 40000 nM | LALEGSLQKR
406 nM | LWMRLLPLLA
4540 nM | MALWMRLLP

The next lines start with the compound.

Compound | IC50
EALYLVCGER | 10100 nM
LYLVCGERG | 28000 nM
QHLCGSHLV | > 40000 nM
